Data published in ChEMBL document CHEMBL1201862, “PubChem BioAssay data set” (2004).
Calls of active or inactive are those of the source.

What was measured:
Paired box protein Pax-8 = Paired box protein Pax-8 (Homo sapiens, UniProt Q06710); assay: inhibitors of PAX8-driven TPO luciferase reporter, dose response, RMG-I cells, cherry-pick (AID 687027); format: functional, cell-based;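 note: luciferase reporter driven by Pax8 target thyroperoxidase promoter measured by SteadyGlo luminescence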
Cytochrome P450 3A4 = Cytochrome P450 3A4 (Homo sapiens, UniProt P08684);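 note: CYP3A4 tested as one member of a cytochrome P450 panel screen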
Cytochrome P450 3A4, sequence (P08684 whole entry): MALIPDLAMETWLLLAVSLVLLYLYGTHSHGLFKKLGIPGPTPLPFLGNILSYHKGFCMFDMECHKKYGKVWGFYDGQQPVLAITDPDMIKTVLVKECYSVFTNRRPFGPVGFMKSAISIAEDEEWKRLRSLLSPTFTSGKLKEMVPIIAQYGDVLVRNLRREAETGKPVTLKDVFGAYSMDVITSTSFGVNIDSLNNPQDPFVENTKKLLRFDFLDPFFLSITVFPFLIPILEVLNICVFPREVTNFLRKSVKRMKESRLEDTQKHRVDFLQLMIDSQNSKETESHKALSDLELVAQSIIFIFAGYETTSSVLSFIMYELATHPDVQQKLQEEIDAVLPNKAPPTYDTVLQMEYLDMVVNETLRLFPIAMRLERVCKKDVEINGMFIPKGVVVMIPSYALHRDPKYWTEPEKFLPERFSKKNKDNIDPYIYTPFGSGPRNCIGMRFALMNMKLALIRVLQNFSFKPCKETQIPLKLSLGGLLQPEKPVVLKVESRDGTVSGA

Cytochrome P450 2C9 = Cytochrome P450 2C9 (Homo sapiens, UniProt P11712)
Cytochrome P450 2C9, sequence (P11712 whole entry): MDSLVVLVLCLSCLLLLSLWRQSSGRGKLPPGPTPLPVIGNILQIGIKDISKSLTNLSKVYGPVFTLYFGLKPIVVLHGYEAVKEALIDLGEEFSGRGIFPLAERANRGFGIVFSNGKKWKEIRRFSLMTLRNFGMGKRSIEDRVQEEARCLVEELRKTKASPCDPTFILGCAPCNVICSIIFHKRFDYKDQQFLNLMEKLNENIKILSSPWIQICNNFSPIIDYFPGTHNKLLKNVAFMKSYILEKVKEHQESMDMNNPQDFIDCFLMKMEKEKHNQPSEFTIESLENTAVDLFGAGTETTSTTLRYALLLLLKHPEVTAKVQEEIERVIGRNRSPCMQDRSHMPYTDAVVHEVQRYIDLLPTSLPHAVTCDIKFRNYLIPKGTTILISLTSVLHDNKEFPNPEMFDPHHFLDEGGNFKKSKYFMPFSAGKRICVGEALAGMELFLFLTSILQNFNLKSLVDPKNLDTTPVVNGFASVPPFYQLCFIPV

Cytochrome P450 1A2 = biological target: T1, Cytochrome P450 1A2 (Homo sapiens, UniProt P05177);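 note: PubChem cytochrome P450 panel assay, CYP1A2 panel member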
T1 sequence (P05177 whole entry): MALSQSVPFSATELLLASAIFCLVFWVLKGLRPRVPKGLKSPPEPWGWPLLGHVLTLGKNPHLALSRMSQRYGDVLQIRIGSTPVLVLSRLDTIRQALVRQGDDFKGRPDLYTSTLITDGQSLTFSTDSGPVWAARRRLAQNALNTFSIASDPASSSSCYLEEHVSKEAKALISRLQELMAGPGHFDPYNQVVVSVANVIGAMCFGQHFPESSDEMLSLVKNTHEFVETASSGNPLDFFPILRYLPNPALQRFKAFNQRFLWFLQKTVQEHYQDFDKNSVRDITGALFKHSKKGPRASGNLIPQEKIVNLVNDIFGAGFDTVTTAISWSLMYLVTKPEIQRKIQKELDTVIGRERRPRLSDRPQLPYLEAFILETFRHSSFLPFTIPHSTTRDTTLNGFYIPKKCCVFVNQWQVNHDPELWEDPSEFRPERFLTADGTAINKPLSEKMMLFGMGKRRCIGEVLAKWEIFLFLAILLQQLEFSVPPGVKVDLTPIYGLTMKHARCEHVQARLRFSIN

Cytochrome P450 2C19 = Cytochrome P450 2C19 (Homo sapiens, UniProt P33261); assay: Cytochrome panel assay with activity outcomes. Panel member name: p450-cyp2c19 Compounds with AC50 equal or less than 10 uM are considered active; format: functional; conditions: read-out: AC50
Cytochrome P450 2C19, sequence (P33261 whole entry): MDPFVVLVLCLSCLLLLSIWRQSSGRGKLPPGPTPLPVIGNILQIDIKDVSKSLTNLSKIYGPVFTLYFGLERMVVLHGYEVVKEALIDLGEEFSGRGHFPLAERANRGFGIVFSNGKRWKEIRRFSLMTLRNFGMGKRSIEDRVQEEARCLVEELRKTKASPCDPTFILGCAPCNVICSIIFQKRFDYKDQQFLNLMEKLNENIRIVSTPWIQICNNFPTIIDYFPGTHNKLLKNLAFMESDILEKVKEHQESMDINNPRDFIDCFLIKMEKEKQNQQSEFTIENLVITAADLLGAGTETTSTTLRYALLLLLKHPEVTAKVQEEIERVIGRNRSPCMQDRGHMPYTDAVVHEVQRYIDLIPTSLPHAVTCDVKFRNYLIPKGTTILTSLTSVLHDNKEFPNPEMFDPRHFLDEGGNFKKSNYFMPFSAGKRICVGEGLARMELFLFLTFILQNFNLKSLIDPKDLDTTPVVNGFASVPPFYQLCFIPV

[1] = biological target: T2, Replicative DNA helicase DnaB (Mycobacterium tuberculosis, UniProt P9WMR3); assay: DnaB intein splicing inhibitors, dose response, biochemical, cell-free fluorescence (AID 449749); format: functional
T2 sequence (P9WMR3 whole entry): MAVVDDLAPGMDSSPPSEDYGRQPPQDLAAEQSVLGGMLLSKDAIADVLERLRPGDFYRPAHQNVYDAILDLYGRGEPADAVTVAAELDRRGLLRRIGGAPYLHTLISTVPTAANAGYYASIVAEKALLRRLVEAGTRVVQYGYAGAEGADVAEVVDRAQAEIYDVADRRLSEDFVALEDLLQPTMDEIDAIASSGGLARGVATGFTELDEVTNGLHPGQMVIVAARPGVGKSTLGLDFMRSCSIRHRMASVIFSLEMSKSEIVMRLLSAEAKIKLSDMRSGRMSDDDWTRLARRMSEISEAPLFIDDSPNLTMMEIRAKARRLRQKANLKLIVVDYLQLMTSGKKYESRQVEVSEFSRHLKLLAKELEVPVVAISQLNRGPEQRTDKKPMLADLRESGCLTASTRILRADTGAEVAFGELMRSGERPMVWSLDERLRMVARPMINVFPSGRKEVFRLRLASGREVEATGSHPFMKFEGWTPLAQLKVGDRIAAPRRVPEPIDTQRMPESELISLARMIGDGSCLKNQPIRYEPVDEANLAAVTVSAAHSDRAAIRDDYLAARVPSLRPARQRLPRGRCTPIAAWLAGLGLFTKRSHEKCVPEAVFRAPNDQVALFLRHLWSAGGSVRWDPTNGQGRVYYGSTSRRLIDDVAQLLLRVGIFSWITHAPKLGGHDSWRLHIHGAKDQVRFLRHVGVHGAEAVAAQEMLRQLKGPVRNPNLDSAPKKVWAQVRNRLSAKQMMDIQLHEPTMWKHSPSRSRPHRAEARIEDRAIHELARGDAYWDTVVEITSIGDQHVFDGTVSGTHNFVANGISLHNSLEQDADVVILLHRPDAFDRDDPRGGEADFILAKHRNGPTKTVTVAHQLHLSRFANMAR

Protein RecA = biological target: T3, Protein RecA (Mycobacterium tuberculosis, UniProt P9WHJ3); assay: Fluorescence Cell-Free Homogeneous Dose Retest to Identify Inhibitors of RecA-Intein Splicing Activity. [Related pubchem assays (depositor defined):AID2097, AID2223, AID489010, AID492950]; format: functional
T3 sequence (P9WHJ3 whole entry): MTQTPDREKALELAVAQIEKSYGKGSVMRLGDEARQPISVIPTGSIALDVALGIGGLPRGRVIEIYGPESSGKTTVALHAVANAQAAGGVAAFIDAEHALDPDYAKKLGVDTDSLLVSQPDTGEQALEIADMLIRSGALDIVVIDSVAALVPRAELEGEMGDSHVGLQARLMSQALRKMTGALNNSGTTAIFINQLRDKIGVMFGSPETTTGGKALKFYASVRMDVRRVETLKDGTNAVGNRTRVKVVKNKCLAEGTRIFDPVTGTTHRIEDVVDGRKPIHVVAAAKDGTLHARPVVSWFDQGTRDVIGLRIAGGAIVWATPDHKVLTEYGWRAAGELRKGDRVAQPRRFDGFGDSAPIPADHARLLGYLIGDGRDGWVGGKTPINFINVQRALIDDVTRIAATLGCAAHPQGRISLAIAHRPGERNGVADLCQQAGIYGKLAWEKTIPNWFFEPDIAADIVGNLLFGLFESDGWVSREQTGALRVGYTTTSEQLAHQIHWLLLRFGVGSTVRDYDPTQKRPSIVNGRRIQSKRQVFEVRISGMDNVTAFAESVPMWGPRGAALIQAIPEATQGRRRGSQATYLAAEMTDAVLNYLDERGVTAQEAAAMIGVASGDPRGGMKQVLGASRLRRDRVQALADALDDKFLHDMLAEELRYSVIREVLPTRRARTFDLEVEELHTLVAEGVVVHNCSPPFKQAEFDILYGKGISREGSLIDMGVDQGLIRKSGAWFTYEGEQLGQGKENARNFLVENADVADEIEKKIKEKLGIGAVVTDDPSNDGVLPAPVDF

[2] = biological target: T4, Heat shock factor protein 1 (Mus musculus, UniProt P38532); assay: HSF1 potentiators in luciferase reporter cells, confirmation, cell-based, NIH3T3, luminescence, dose retest (AID 435004); format: functional;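 note: stress induced by proteasome inhibitor MG132 added 30 min after compound; luciferase reporter driven by HSF1 response element in NIH3T3 cells; actives raise luminescence as potentiators of the MG132 stress response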
T4 sequence (P38532 whole entry): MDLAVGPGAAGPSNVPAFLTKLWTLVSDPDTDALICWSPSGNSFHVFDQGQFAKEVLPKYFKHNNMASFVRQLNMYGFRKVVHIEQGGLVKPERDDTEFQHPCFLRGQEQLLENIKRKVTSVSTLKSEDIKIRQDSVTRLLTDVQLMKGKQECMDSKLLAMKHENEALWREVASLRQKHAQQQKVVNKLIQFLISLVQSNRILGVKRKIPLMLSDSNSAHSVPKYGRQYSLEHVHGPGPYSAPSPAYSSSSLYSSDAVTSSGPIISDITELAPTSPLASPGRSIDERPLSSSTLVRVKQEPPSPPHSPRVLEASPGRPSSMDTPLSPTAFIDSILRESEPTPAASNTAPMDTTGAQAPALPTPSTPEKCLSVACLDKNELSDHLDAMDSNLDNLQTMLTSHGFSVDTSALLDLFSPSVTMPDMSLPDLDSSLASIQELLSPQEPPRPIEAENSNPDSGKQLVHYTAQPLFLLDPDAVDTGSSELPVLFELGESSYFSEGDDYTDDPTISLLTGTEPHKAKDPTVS

[3] = Luminescence Cell-Based Dose Retest to Confirm Inhibitors of Cancer Stem Cells. [Related pubchem assays (depositor defined):AID2717, AID2721]; format: functional; conditions: Homo sapiens

Paired box protein Pax-8, sequence (Q06710 whole entry): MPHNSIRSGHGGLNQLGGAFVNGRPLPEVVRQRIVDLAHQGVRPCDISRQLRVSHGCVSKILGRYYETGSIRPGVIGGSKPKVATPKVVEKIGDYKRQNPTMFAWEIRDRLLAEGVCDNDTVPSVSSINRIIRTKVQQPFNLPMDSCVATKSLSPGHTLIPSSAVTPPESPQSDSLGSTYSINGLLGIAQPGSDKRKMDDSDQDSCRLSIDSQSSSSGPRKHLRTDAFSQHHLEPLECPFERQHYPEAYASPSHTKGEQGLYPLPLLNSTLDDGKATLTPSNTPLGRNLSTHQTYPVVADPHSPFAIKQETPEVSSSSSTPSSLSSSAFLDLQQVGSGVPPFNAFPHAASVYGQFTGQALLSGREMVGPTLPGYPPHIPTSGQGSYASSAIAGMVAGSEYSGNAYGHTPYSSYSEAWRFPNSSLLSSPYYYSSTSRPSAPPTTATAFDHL

## Cc1ccc(S(=O)(=O)N2CCCCC2)cc1NC(=O)Cc1c[nH]c2ccccc12
Paired box protein Pax-8
  AC50: 19.5 µM (active)

## COc1cc(C(=O)OCC(=O)Nc2cc(C)on2)cc(OC)c1OC
Cytochrome P450 3A4
  AC50: 15.8 µM (inconclusive)
Cytochrome P450 2C9
  AC50: 0.0447 µM (inconclusive)

## N#CCCn1c(=O)c(-c2cccs2)nc2cnc(OCc3ccccc3)nc21
Cytochrome P450 2C9
  AC50: 1.58 µM (inconclusive)

## COc1cccc(Nc2ncc3nc(-c4ccccc4)c(=O)n(Cc4cccs4)c3n2)c1
Cytochrome P450 1A2
  AC50: 20 µM (inconclusive)

## COC(=O)CN1C(=O)S/C(=C/c2ccc(N3CCCCC3)o2)C1=O
Cytochrome P450 2C19
  AC50: 5.62 µM (inconclusive)
Cytochrome P450 3A4
  AC50: 15.8 µM (inconclusive)
Cytochrome P450 2C9
  AC50: 5.62 µM (inconclusive)

## CCOC(=O)c1nc(O)c2ccccc2c1O
[1]
  AC50: > 380 µM (inactive)
Protein RecA
  EC50: 5.23 µM (active)

## Clc1ccccc1-c1nc(NCc2cccs2)c2ccccc2n1
Cytochrome P450 2C9
  AC50: 0.794 µM (inconclusive)

## Cc1n[nH]c2c1C(c1ccc(Cl)cc1)C(C#N)=C(N)O2 (configuration not stated)
[1]
  AC50: 9.8 µM (active)
Protein RecA
  EC50: 6.1 µM (active)

## Nc1nc(S)nc2c1C1(CCCC1)Cc1ccccc1-2
Cytochrome P450 2C19
  AC50: 11.2 µM (inconclusive)
Cytochrome P450 2C9
  AC50: 0.355 µM (inconclusive)

## CCOCCCn1cnc2c3ccc(OC)cc3nc-2c1O
Cytochrome P450 2C9
  AC50: 39.8 µM (inconclusive)

## CCC(=O)N1CCN(c2ccc(NC(=O)COc3ccc(C)cc3C)cc2)CC1
[2]
  EC50: > 260 µM (inactive)

## O=[N+]([O-])c1ccc(N/N=C/c2sc(N3CCOCC3)nc2-c2ccccc2)c(S(=O)(=O)Nc2ccc(Cl)cc2)c1
Paired box protein Pax-8
  AC50: 1.99 µM (active)

## COc1cc(C(c2c(C)n[nH]c2O)c2c(C)n[nH]c2O)cc(Br)c1OC
[1]
  AC50: 0.756 µM (active)
Protein RecA
  EC50: 0.274 µM (active)

## CCN(C(=O)Cn1c(=O)oc2ccccc21)c1cccc(C(F)(F)F)c1
Cytochrome P450 1A2
  AC50: 39.8 µM (inconclusive)
Cytochrome P450 3A4
  AC50: 7.08 µM (inconclusive)

## CN1C(=O)COc2c(C(=O)N[C@@H]3CN4CCC3CC4)cc(Cl)cc21
Cytochrome P450 1A2
  AC50: 39.8 µM (inconclusive)

## COC(=O)[C@@]12C[C@@H](CC(=O)N3CCN(C(=O)c4ccco4)CC3)C(=O)N(Cc3ccccc3)C1=CCC(C)(C)C2
Paired box protein Pax-8
  AC50: 1.81 µM (active)

## COc1ccc(NC(=O)Nc2ccc3c(c2)C(=O)N([C@@H](C)CO)C[C@@H](C)[C@@H](CN(C)Cc2ccc(C(F)(F)F)cc2)O3)cc1
Paired box protein Pax-8
  AC50: 13.9 µM (active)

## CC1(C)Cc2ccccc2C(/C=C(\O)c2ccccc2)=N1
[3]
  AC50: 1.97 µM (active)

## COCC(=O)O[C@]1(CCN(C)CCCc2nc3ccccc3[nH]2)CCc2cc(F)ccc2[C@@H]1C(C)C [MIBEFRADIL]
Cytochrome P450 1A2
  AC50: 31.6 µM (inconclusive)
